Structures can show the parent of a compound that is named as a salt.
Each compound was assayed against T1, human full length HSD11 β 1 (Homo sapiens, UniProt P28845) (assay: In Vitro HSD11β1 Inhibition Assay). Conditions: CHO cells transiently expressing human HSD11β1; 200 nM cortisone+500 uM NADPH overnight; cortisone to cortisol by LC/MS-MS; read-out: 11βHSD1 (IC50).
T1 construct: transient expression of human full length HSD11 β 1 expression vector; host or cells: CHO cells (transient transfection)
Assay type: cell-based
Outline: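 CHO cells transiently transfected with human full-length HSD11β1 were re-seeded after 24 h and, 24 h later, incubated overnight with 200 nM cortisone plus 500 uM NADPH and inhibitor. Cortisone-to-cortisol conversion was measured by LC/MS-MS. IC50 from an 8-point log concentration–inhibition curve.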

T1 sequence (P28845 whole entry): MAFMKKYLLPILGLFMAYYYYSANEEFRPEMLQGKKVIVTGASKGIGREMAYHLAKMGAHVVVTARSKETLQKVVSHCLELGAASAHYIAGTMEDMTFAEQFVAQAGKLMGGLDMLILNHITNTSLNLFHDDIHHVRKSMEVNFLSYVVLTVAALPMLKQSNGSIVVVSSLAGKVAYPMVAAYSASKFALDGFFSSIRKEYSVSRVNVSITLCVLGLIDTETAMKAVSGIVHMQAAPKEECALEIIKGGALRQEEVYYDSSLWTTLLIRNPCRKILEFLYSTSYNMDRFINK

CC1CCC2CCCCC2N1C(=O)CCc1nc2ccccc2s1 (stereo not shown) [Example 76, 3-(1,3-benzothiazol-2-yl)-1-(2-methyloctahydroquinolin-1 (2H)-yl)propan-1-one] and CC1CC2CCCCC2N1C(=O)CCc1nc2ccccc2s1 (stereo not shown) [Example 83, 3-(1,3-benzothiazol-2-yl)-1-(2-methyloctahydro-1H-indol-1-yl)propan-1-one] cannot be ordered by IC50: > 250 nM for the first, > 250 nM for the second.

Going from COC(=O)C1CCN(C(=O)CCc2nc3ccccc3s2)C2CCCCC12 (stereo not shown) [Example 77, methyl 1-[3-(1,3-benzothiazol-2-yl)propanoyl]decahydroquinoline-4-carboxylate] to O=C(CCc1nc2ccccc2s1)N1CCC2CCCCC21 (stereo not shown) [Example 81, 3-(1,3-benzothiazol-2-yl)-1-(octahydro-1H-indol-1-yl)propan-1-one], the IC50 falls from > 250 nM to < 100 nM.

Compared with CC12CCCCC1N(C(=O)CCc1nc3ccccc3s1)CCC2 (stereo not shown) [Example 78, 3-(1,3-benzothiazol-2-yl)-1-(4a-methyloctahydroquinolin-1(2H)-yl)propan-1-one], CC12CCCCC1N(C(=O)CCn1nnc3ccccc31)CCC2 (stereo not shown) [Example 90, 3-(1H-benzotriazol-1-yl)-1-(4a-methyloctahydroquinolin-1(2H)-yl)propan-1-one] is higher in IC50: < 100 nM for the first, 100 to 150 nM for the second.

O=C(CCc1nc2ccccc2s1)N1CCOC2CCCCC21 (stereo not shown) [Example 80, 3-(1,3-benzothiazol-2-yl)-1-(octahydro-4H-1,4-benzoxazin-4-yl)propan-1-one] and O=C(CCc1nc2ccccc2s1)N1CC2CCCCC2C1 (stereo not shown) [Example 82, 3-(1,3-benzothiazol-2-yl)-1-(octahydro-2H-isoindol-2-yl)propan-1-one] cannot be ordered by IC50: > 250 nM for the first, > 250 nM for the second.

O=C(CCc1c[nH]c2ncccc12)N1CCCC2CCCCC21 (stereo not shown) [Example 84, 1-(octahydroquinolin-1(2H)-yl)-3-(1H-pyrrolo[2,3-b]pyridin-3-yl)propan-1-one] and O=C(CCc1c[nH]c2ccccc12)N1CCCC2CCCCC21 (stereo not shown) [Example 93, 3-(1H-indol-3-yl)-1-(octahydroquinolin-1(2H)-yl)propan-1-one] cannot be ordered by IC50: < 100 nM for the first, < 100 nM for the second.

Compared with O=C(CCc1cn(S(=O)(=O)c2ccccc2)c2ncccc12)N1CCCC2CCCCC21 (stereo not shown) [Example 85, 1-(octahydroquinolin-1(2H)-yl)-3-[1-(phenylsulfonyl)-1H-pyrrolo[2,3-b]pyridin-3-yl]propan-1-one], Cn1cc(CCC(=O)N2CCCC3CCCCC32)c2cccnc21 (stereo not shown) [Example 87, 3-(1-methyl-1H-pyrrolo[2,3-b]pyridin-3-yl)-1-(octahydroquinolin-1 (2H)-yl)propan-1-one] is lower in IC50: > 250 nM for the first, < 100 nM for the second.

Compared with CC1CCC2CCCCC2N1C(=O)CCc1c[nH]c2ncccc12 (stereo not shown) [Example 86, 1-(2-methyloctahydroquinolin-1(2H)-yl)-3-(1H-pyrrolo[2,3-b]pyridin-3-yl)propan-1-one], CC(CC(=O)N1C(C)CCC2CCCCC21)c1c[nH]c2ccc(F)cc12 (stereo not shown) [Example 92, 3-(5-fluoro-1H-indol-3-yl)-1-(2-methyloctahydroquinolin-1(2H)-yl)butan-1-one] is higher in IC50: < 100 nM for the first, 100 to 150 nM for the second. The first is the more potent here.

Compared with O=C(CCc1n[nH]c2ccccc12)N1CCCC2CCCCC21 (stereo not shown) [Example 88, 3-(1H-indazol-3-yl)-1-(octahydroquinolin-1(2H)-yl)propan-1-one], Cn1nc(CCC(=O)N2CCCC3CCCCC32)c2ccccc21 (stereo not shown) [Example 89, 3-(1-methyl-1H-indazol-3-yl)-1-(octahydroquinolin-1(2H)-yl)propan-1-one] is lower in IC50: > 250 nM for the first, 150 to 200 nM for the second. The second is the more potent here.

Compared with O=C(CCn1nnc2ccccc21)N1CCOC2CCCCC21 (stereo not shown) [Example 91, 3-(1H-benzotriazol-1-yl)-1-(octahydro-4H-1,4-benzoxazin-4-yl)propan-1-one], CC(CC(=O)N1CCCC2CCCCC21)c1cn(C)c2ccccc12 (stereo not shown) [Example 94, 3-(1-methyl-1H-indol-3-yl)-1-(octahydroquinolin-1(2H)-yl)butan-1-one] is lower in IC50: > 250 nM for the first, 150 to 200 nM for the second. The second is the more potent here.

CC(C)C(CC(=O)N1CCCC2CCCCC21)c1c[nH]c2ccccc12 (stereo not shown) [Example 95, 3-(1H-indol-3-yl)-4-methyl-1-(octahydroquinolin-1(2H)-yl)pentan-1-one] and CC(C)C(CC(=O)N1CCCC2CCCCC21)c1c[nH]c2cccc(F)c12 (stereo not shown) [Example 111, 3-(4-fluoro-1H-indol-3-yl)-4-methyl-1-(octahydroquinolin-1(2H)-yl)pentan-1-one] cannot be ordered by IC50: < 100 nM for the first, < 100 nM for the second.

CC(=O)NC(Cc1c[nH]c2ccccc12)C(=O)N1CCCC2CCCCC21 (stereo not shown) [Example 96, N-[3-(1H-indol-3-yl)-1-(octahydroquinolin-1(2H)-yl)-1-oxopropan-2-yl]acetamide] and N#CC(Cc1c[nH]c2ccccc12)C(=O)N1CCCC2CCCCC21 (stereo not shown) [Example 98, 2-(1H-indol-3-ylmethyl)-3-(octahydroquinolin-1(2H)-yl)-3-oxopropanenitrile] cannot be ordered by IC50: > 250 nM for the first, > 250 nM for the second.

First: Cn1cc(C2CC2C(=O)N2CCCC3CCCCC32)c2ccccc21 (stereo not shown) [Example 97, [2-(1-methyl-1H-indol-3-yl)cyclopropyl](octahydroquinolin-1(2H)-yl)methanone]
Second: CC(Oc1cn(C)c2ccccc12)C(=O)N1CCCC2CCCCC21 (stereo not shown) [Example 100, 2-[(1-methyl-1H-indol-3-yl)oxy]-1-(octahydroquinolin-1(2H)-yl)propan-1-one]
The IC50 of the first is lower: 150 to 200 nM for the first, > 250 nM for the second. The first is the more potent here.

O=C(COc1c[nH]c2ccccc12)N1CCCC2CCCCC21 (stereo not shown) [Example 99, 2-(1H-indol-3-yloxy)-1-(octahydroquinolin-1(2H)-yl)ethanone] and N#CC(CC(=O)N1CCCC2CCCCC21)c1c[nH]c2ccccc12 (stereo not shown) [Example 109, 2-(1H-indol-3-yl)-4-(octahydroquinolin-1(2H)-yl)-4-oxobutanenitrile] cannot be ordered by IC50: > 250 nM for the first, > 250 nM for the second.

COC(=O)C1CCN(C(=O)CC(c2c[nH]c3ccccc23)C(C)C)C2CCCCC12 (stereo not shown) [Example 101, methyl 1-[3-(1H-indol-3-yl)-4-methylpentanoyl]decahydroquinoline-4-carboxylate] and CC(C)C(CC(=O)N1CCC(C(=O)O)C2CCCCC21)c1c[nH]c2ccccc12 (stereo not shown) [Example 105, 1-[3-(1H-indol-3-yl)-4-methylpentanoyl]decahydroquinoline-4-carboxylic acid] cannot be ordered by IC50: > 250 nM for the first, > 250 nM for the second.

COC(=O)C1CCN(C(=O)CC(C)c2c[nH]c3ccccc23)C2CCCCC12 (stereo not shown) [Example 102, methyl 1-[3-(1H-indol-3-yl)butanoyl]decahydroquinoline-4-carboxylate] and CC(CC(=O)N1CCC(O)C2CCCCC21)c1c[nH]c2ccccc12 (stereo not shown) [Example 106, 1-(4-hydroxyoctahydroquinolin-1(2H)-yl)-3-(1H-indol-3-yl)butan-1-one] cannot be ordered by IC50: > 250 nM for the first, > 250 nM for the second.

CC(CC(=O)N1CCC(=O)C2CCCCC21)c1c[nH]c2ccccc12 (stereo not shown) [Example 103, 1-[3-(1H-indol-3-yl)butanoyl]octahydroquinolin-4(1H)-one] and CC(C)C(CC(=O)N1CCC(=O)C2CCCCC21)c1c[nH]c2ccccc12 (stereo not shown) [Example 104, 1-[3-(1H-indol-3-yl)-4-methylpentanoyl]octahydroquinolin-4(1H)-one] cannot be ordered by IC50: > 250 nM for the first, > 250 nM for the second.

Compared with CC(C)C(CC(=O)N1CCC(C(=O)O)C2CCCCC21)c1c[nH]c2ccccc12 (stereo not shown) [Example 107, 1-[3-(1H-indol-3-yl)-4-methylpentanoyl]decahydroquinoline-4-carboxylic acid sodium salt], CC(CC(=O)N1CCCC2CCCCC21)c1c[nH]c2cccc(F)c12 (stereo not shown) [Example 121, 3-(4-fluoro-1H-indol-3-yl)-1-(octahydroquinolin-1(2H)-yl)butan-1-one] is lower in IC50: > 250 nM for the first, < 100 nM for the second.

O=C(CC(O)(c1c[nH]c2ccccc12)C(F)(F)F)N1CCCC2CCCCC21 (stereo not shown) [Example 108, 4,4,4-trifluoro-3-hydroxy-3-(1H-indol-3-yl)-1-(octahydroquinolin-1(2H)-yl)butan-1-one] and CC(C)(c1c[nH]c2ccccc12)C(C#N)C(=O)N1CCCC2CCCCC21 (stereo not shown) [Example 110, 3-(1H-indol-3-yl)-3-methyl-2-(octahydroquinolin-1(2H)-ylcarbonyl)butanenitrile] cannot be ordered by IC50: > 250 nM for the first, > 250 nM for the second.

CC(C)C(CC(=O)N1CCCC2(C)CCCCC12)c1c[nH]c2cccc(F)c12 (stereo not shown) [Example 112, 3-(4-fluoro-1H-indol-3-yl)-4-methyl-1-(4a-methyloctahydroquinolin-1(2H)-yl)pentan-1-one] and CC(CC(=O)N1CCCC2(C)CCCCC12)c1c[nH]c2cccc(F)c12 (stereo not shown) [Example 114, 3-(4-fluoro-1H-indol-3-yl)-1-(4a-methyloctahydroquinolin-1(2H)-yl)butan-1-one] cannot be ordered by IC50: < 100 nM for the first, < 100 nM for the second.

CC(CC(=O)N1CCCC2(C)CCCCC12)c1cn(C)c2ccccc12 (stereo not shown) [Example 113, 3-(1-methyl-1H-Indol-3-yl)-1-(4a-methyloctahydroquinolin-1(2H)-yl)butan-1-one] and CC(CC(=O)N1CCCC2(c3ccccc3)CCCCC12)c1c[nH]c2cccc(Cl)c12 (stereo not shown) [Example 128, 3-(4-chloro-1H-indol-3-yl)-1-(4a-phenyloctahydroquinolin-1(2H)-yl)butan-1-one] cannot be ordered by IC50: > 250 nM for the first, > 250 nM for the second.

CC(CC(=O)N1CCC[C@H]2CCCC[C@@H]21)c1c[nH]c2cccc(Cl)c12 (stereo partly drawn) [Example 126, 3-(4-chloro-1H-indol-3-yl)-1-[trans-(4a,8a)-octahydroquinolin-1(2H)-yl]butan-1-one] and CC(CC(=O)N1CCCC2(C(=O)O)CCCCC12)c1c[nH]c2cccc(Cl)c12 (stereo not shown) [Example 129, 1-[3-(4-chloro-1H-indol-3-yl)butanoyl]octahydroquinoline-4a(2H)-carboxylic acid] cannot be ordered by IC50: > 250 nM for the first, > 250 nM for the second.

In the case of CCOC(=O)C12CCCCC1N(C(=O)CC(C)c1c[nH]c3cccc(Cl)c13)CCC2 (stereo not shown) [Example 127, ethyl 1-[3-(4-chloro-1H-indol-3-yl)butanoyl]octahydroquinoline-4a(2H)-carboxylate], the IC50 is reported as > 250 nM.

— patent publication US9453014B2, “Cyclic amide derivatives as inhibitors of 11-β-hydroxysteroid dehydrogenase and uses thereof” (CONNEXIOS LIFE SCIENCES PVT. LTD., priority 2011, dated 2016)
